Laboratory results as given in patent US9486493B2, “Use of a peptide and an analgesic pharmaceutical agent” (priority 2007, dated 2016).
Where no end group is shown, it is not given here.

How the values were obtained:
[1] = directly into the subarachnoid space (intrathecal), rats; cited from earlier work
[2] = system: pain reaction in mice with inflammation; experiment: Freund's adjuvant limb inflammation in mice, acute pain by tail dipping in 55° C water; assay type: in vivo
Procedure: Inflammation was induced in mice through the administration of Freund's adjuvant into a limb. After two days, a progressing inflammation was observed. The analgesic activity of biphalin was observed following a week, during acute pain caused by tail dipping in water at a temperature of 55° C.

[3] = intravenous administration; cited from earlier work
[4] = system: pain reaction in mice with inflammation; experiment: Animal pain model of tumour metastasis (human ovarian cancer cells into a rear limb), tail dipping in 55° C water; assay type: in vivo; settings: for dose necessitated for a similar analgesic effect: control group lacking the inflammation; for analgesic activity (pain reaction): mice with inflammation, after two weeks
Procedure: (§1) In an animal pain model of tumour metastasis, inflammation was induced though the injection of a million human ovarian cancer cells into a rear limb. After two days, we observed a progressing inflammation induced by tumour take. The analgesic activity of biphaline was observed after two weeks, during acute pain caused by tail dipping in water at a temperature of 55° C. […] In the control group, which lacked the inflammation, a similar analgesic effect necessitated the use of a dose of 1 mg/kg.
as §1, with “(Tyr-Ser-Gly-Phe-NH—)2” for “biphaline”, “4” for “1”

[5] = system: acute pain in rat with inflammation; experiment: Animal rheumatoid inflammation model (Mycobacterium butyricum into the tarsal joint), thermal stimulation of the tail; assay type: in vivo; settings: for antinociceptive effects: control group; for analgesic effect on acute pain: rat with inflammation, 0.5 mg/kg, after two weeks
Procedure: In an animal rheumatoid inflammation model, an anaesthetised rat was injected with homogenates of thermically inactivated Mycobacterium butyricum suspended in sunflower oil at a volume ratio of 1:1 into the tarsal joint. After two weeks inflammation was observed. The analgesic effect on acute pain was observed using thermal stimulation of the tail.

[6] = humans; cited from earlier work

In the case of `C[C@@H](NC(=O)[C@@H](N)Cc1ccc(O)cc1)C(=O)NCC(=O)N[C@@H](Cc1ccccc1)C(=O)NNC(=O)[C@H](Cc1ccccc1)NC(=O)CNC(=O)[C@@H](C)NC(=O)[C@@H](N)Cc1ccc(O)cc1` [biphalin], the “activity relative to morphine administered the same way” value [1] is given as about 1000 fold, the “analgesic activity (pain reaction)” value ([2]; control group lacking the inflammation, same dose 50 μg/kg intravenous) is given as “no effect was observed” and the “analgesic activity (pain reaction)” value ([2]; mice with inflammation, 50 μg/kg intravenous, one week after Freund's adjuvant) is given as “complete disappearance of the pain reaction”. The “activity relative to morphine” value [3] was “equivalent to that of morphine”, the “dose necessitated for a similar analgesic effect” value [4] was 1 mg/kg and the “analgesic activity (pain reaction)” value ([4]; 100 μg/kg intraperitoneal) was “complete disappearance of the pain reaction”. The antinociceptive effects ([5]; same amount (0.5 mg/kg)) was “no antinociceptive effects were observed” and the “analgesic effect on acute pain” value [5] was “completely blocked pain effects”.
In the case of `CN1CC[C@]23c4c5ccc(O)c4O[C@H]2[C@@H](O)C=C[C@H]3[C@H]1C5` [morphine], the “minimum effective dose usually used as an initial analgesic dose” value [6] is given as 1 mg.
In the case of (Tyr-D-Thr-Gly-Trp-NH—)2, the antinociceptive effects ([5]; after administration of 4 mg/kg) is reported as “no antinociceptive effects were observed” and the “analgesic effect on acute pain” value [5] is reported as “completely blocked pain effects”.
For “(Tyr-Ser-Gly-Phe-NH—)2 (YSGF; also: dimer linked via C-terminal NH hydrazide bridge) [opioid peptide, analogue of biphalin]”, the “dose necessitated for a similar analgesic effect” value [4] was 4 mg/kg and the “analgesic activity (pain reaction)” value ([4]; 50 μg/kg intraperitoneal) was “complete disappearance of the pain reaction”.
